The values that follow are results of earlier work, collected in patent publication US20110178167A1, “METHOD FOR INHIBITING ACTIVITY AND/OR EXPRESSION OF MATRIX METALLOPROTEINASE, INHIBITING PHOSPHORYLATION OF MITOGEN-ACTIVATED PROTEIN KINASE, AND/OR PROMOTING EXPRESSION OF COLLAGEN USING TERMINALIA CATAPPA LEAF EXTRACT” (priority 2010, published 2011).

The data set concerns matrix metalloproteinase-1. The note with it: related art.

`C[C@@H]1CC[C@]2(C(=O)O[C@@H]3O[C@H](CO)[C@@H](O)[C@H](O)[C@H]3O)CC[C@]3(C)C(=CC[C@@H]4[C@@]5(C)CC[C@H](O[C@@H]6OC[C@H](O)[C@H](O)[C@H]6O)C(C)(C)[C@@H]5CC[C@]43C)[C@@H]2[C@]1(C)O` [ziyuglycoside-I]: the “expression of matrix metalloproteinase-1” value was “inhibited”. On to `O=c1cc(-c2ccc(O)c(-c3c(O)c(O)c(O)c4c(=O)cc(-c5ccc(O)cc5)oc34)c2)oc2cc(O)cc(O)c12` [sumaflavone], for which the “expression of matrix metalloproteinase-1” value is reported as “inhibited”.
